The source of these data is patent US20240262842A1, “SMALL MOLECULE INHIBITORS OF KRAS G12C MUTANT” (Merck Sharp & Dohme LLC, priority 2021, published 2024).

Where two headings read alike, the source gives them in different places.

Test [1] deals with T1, interaction between GMPPNP-bound recombinant K-Ras4B G12C mutant protein and cRAF RAS-binding domain (cRAF-RBD) (Homo sapiens, UniProt P01116, G12C).
T1 construct: His-tag (N)
Put plainly: Inhibitory activity on interaction between KRAS G12C and cRAF (Alpha technology). The method, boiled down:
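Alpha signal measured 1.5 h after adding cRAF-RBD (aa 50-132) and detection reagents to GMPPNP-bound KRAS G12C (aa 1-169) pretreated 1 h at 25° C with compound (pH 7.5 buffer). 0% inhibition = DMSO, 100% = GDP-loaded KRAS; IC50 by curve fit.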

A further test relates to MIA PaCa-2 cells. The test is described as follows: Growth inhibition activity on KRAS-G12C mutant cell line (CellTiter-Glo 3D). Particulars: MIA PaCa-2, 3-day culture with compound. In kind it is cell-based, human. Put shortly:
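IC50 (nM) derived from inhibition of luminescence (CellTiter-Glo 3D) relative to compound-free wells. Cells were seeded in U-bottom plates, grown 1 day, then exposed to compound for 3 days at 37 °C with 0.2% final DMSO.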

[2] abbreviates: IC50, GMPPNP-bound KRAS G12C incubated with compound 25° C. 1 hour, Table 2.
The mark [3] stands for this setting: Homo sapiens, MIA PaCa-2, 72 h, Table 3.
Where [4] appears, read: GMPPNP-bound KRAS G12C incubated with compound 25° C. 1 hour, Table 2-1, read-out: IC50.
[5] abbreviates: Homo sapiens, MIA PaCa-2, 72 h, Table 3-1.
[6] abbreviates: GMPPNP-bound KRAS G12C incubated with compound 25° C. 1 hour, Table 2, read-out: IC50.
Where [7] appears, read: IC50, GMPPNP-bound KRAS G12C incubated with compound 25° C. 1 hour, Table 2-1.

T1 sequence (P01116 with tags, fused parts or gaps isoform P01116-2 G12C): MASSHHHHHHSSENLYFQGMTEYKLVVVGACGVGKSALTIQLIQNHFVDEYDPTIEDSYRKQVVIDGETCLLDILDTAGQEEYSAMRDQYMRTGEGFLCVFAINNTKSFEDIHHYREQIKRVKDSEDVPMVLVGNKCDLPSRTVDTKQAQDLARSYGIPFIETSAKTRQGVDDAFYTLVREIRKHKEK

On to `CO[C@H]1CC[C@H](NC/C=C/C(=O)Nc2c(F)cc(C(=O)c3cn4c5c(cccc35)-c3c(C(F)(F)F)ccc(=O)n3CCC4)cc2F)CC1` [Example 49, (E)-N-(2,6-difluoro-4-(8-oxo-11-(trifluoromethyl)-5,6-dihydro-4H,8H-pyrido[2′,1′:4,5][1,5]diazocino[3,2,1-hi]indole-1-carbonyl)phenyl-4-((1r,4r)-4-methoxycyclohexyl)amino)but-2-enamide], for which the IC50 (commonly the concentration that gives 50% inhibition) in test [1] (setting [2]) amounted to 260 nM; with MIA PaCa-2 cells (setting [3]), 150 nM.

For the compound `CN1CCc2cc(C(=O)c3cc(F)c(NC(=O)/C=C/CN[C@H]4CCOC4)c(F)c3)n3cccc(c23)-c2c(C(F)(F)F)cc3[nH]cnc3c21` (atropisomer, axis not shown) [Example 218], the half-maximal inhibitory concentration (IC50) worked out at 27 nM in test [1] (setting [4]) and 14.2 nM in the test on MIA PaCa-2 cells (setting [5]).

Turning to `COc1cc2c(ncn2C)c2c1-c1cccn3c(C(=O)c4cc(F)c(NC(=O)/C=C/CNC5(C)CC5)c(F)c4)cc(c13)CCN2C` (single isomer, unassigned) [Example 160, (E)-N-(2,6-difluoro-4-(7-methoxy-9,12-dimethyl-9,12,13,14-tetrahydro-imidazo[4″,5″:5′,6′]benzo-[1′,2′:2,3]azocino[4,5,6-hi]indolizine-2-carbon-yl)phenyl)-4-((1-methyl-cyclopropyl)amino)but-2-enamide], the 50% inhibitory concentration (IC50) turned out to be 5.71 nM in test [1] (setting [4]) and 9.25 nM with MIA PaCa-2 cells (setting [5]).

In the case of `COCc1nc2c3c(c(C(F)(F)F)cc2n1C)-c1cccn2c(C(=O)c4cc(F)c(NC(=O)/C=C/CNC5(C)CC5)c(F)c4)nc(c12)CCN3C` [Example 185, (E)-N-(2,6-difluoro-4-(9-(methoxymethyl)-8,11-dimethyl-6-(trifluorometh-yl)-8,11,12,13-tetrahydro-1,2a,8,10,11-pentaaza-cycloocta[1,2,3-cd:5,4-e′]diindene-2-carbonyl)-phenyl)-4-((1-methyl-cyclopropyl)amino)but-2-enamide], the IC50 in test [1] (setting [4]) was determined as 40.8 nM; in the test on MIA PaCa-2 cells (setting [5]), 75.7 nM.

Take `Cn1cnc2c3c(c(C(F)(F)F)cc21)-c1cccn2c(C(=O)c4cc(F)c(NC(=O)/C=C/CN5CC[C@@H](O)C5)c(F)c4)cc(c12)CCO3` [Example 151, (R,E)-N-(2,6-difluoro-4-(9-methyl-7-(trifluoro-methyl)-13,14-dihydro-9H-imidazo[4″,5″:5′,6′]-benzo[1′,2′:2,3]oxocino-[4,5,6-hi]indolizine-2-carbonyl)phenyl)-4-(3-hydroxypyrrolidin-1-yl)-but-2-enamide]: the IC50 worked out at 15.5 nM in test [1] (setting [4]) and 33.9 nM in the test with MIA PaCa-2 cells (setting [5]).

As to `CO[C@H]1CC[C@H](NC/C=C/C(=O)Nc2c(F)cc(C(=O)c3cn4c5c(cccc35)-c3c(C)cc5c(nc(C)n5C)c3OCC4)cc2F)CC1` (single isomer, unassigned) [Example 14-2, (E)-N-(2,6-difluoro-4-(6,8,9-trimethyl-12,13-dihydro-8H-imidazo[4″,5″:3′,4′]benzo[1′,2′:7,8][1,4]oxazocino[6,5,4-hi]indole-2-carbonyl)phenyl)-4-(((11,4r)-4-methoxycyclohexyl)amino)but-2-enamide], the IC50 was above 6700 nM in test [1] (setting [2]) and 3700 nM with MIA PaCa-2 cells (Table 3).

With `CO[C@H]1CC[C@H](NC/C=C/C(=O)Nc2c(F)cc(C(=O)c3cc4c5c(cccn35)-c3c(C(F)(F)F)cc5c(nc(C)n5C)c3OCC4)cc2F)CC1` (single isomer, unassigned) [Example 30-1, (E)-N-(4-(9,10-dimethyl-7-(trifluoromethyl)-13,14-dihydro-9H-imidazo[4″,5″:5′,6′]benzo[1′,2′:2,3]oxocino[4,5,6-hi]indolizine-2-carbonyl)-2,6-difluorophenyl)-4-(((1r,4r)-4-methoxycyclohexyl)amino)but-2-enamide], the results for the IC50 (in test [1] (setting [6]); with MIA PaCa-2 cells (Table 3)) were 7 nM and 3 nM, respectively.

For `CO[C@H]1CC[C@H](NC/C=C/C(=O)Nc2c(F)cc(C(=O)c3cn4c5c(cccc35)-c3c(C(F)(F)F)cc5c(nc(C)n5C)c3N(C)C(=O)C4)cc2F)CC1` [Example 76, (E)-N-(2,6-difluoro-4-(8,9,11-trimethyl-12-oxo-6-(trifluoromethyl)-8,11,12,13-tetrahydro-imidazo[4″,5″:5′,6′]benzo-[1′,2′:5,6][1,4]diazocino-[7,8,1-hi]indole-2-carbon-yl)phenyl)-4-(((1r,4r)-4-methoxycyclohexyl)-amino)but-2-enamide], the half-inhibitory concentration (IC50) in test [1] (setting [7]) was 22.2 nM; in the test on MIA PaCa-2 cells (setting [5]), 7.14 nM.

Take `Cc1nc2c3c(c(C(F)(F)F)cc2n1C)-c1cccn2c(C(=O)c4cc(F)c(NC(=O)/C=C/CNC5(C)COC5)c(F)c4)cc(c12)CCO3` (single isomer, unassigned) [Example 31-2, (E)-N-(4-(9,10-dimethyl-7-(trifluoromethyl)-13,14-dihydro-9H-imidazo[4″,5″:5′,6′]benzo[1′,2′:2,3]oxocino[4,5,6-hi]indolizine-2-carbonyl)-2,6-difluorophenyl)-4-((3-methyloxetan-3-yl)amino)but-2-enamide]: the IC50 is above 6700 nM in test [1] (setting [6]) and 9200 nM with MIA PaCa-2 cells (Table 3).

Turning to `CO[C@H]1CC[C@H](NC/C=C/C(=O)Nc2c(F)cc(C(=O)c3cn4c5c(cccc35)-c3c(C)cc5c(nc(C)n5C)c3OC[C@@H](C)C4)cc2F)CC1` [Example 22, (E)-N-(2,6-difluoro-4-((S)-6,8,9,13-tetramethyl-13,14-dihydro-8H, 12H-imidazo[4″,5″:3′,4′]benzo[1′,248,9][1,5]oxazonino[7,6,5-hi]indole-2-carbonyl)phenyl)-4-(((1,4r)-4-methoxycyclohexyl)amino)but-2-enamide], the concentration for half-maximal inhibition (IC50) (in test [1] (setting [2]); in the test with MIA PaCa-2 cells (setting [3])) was 100 nM throughout.

`Cc1cc2c(nc(C)n2C)c2c1-c1cccc3c(C(=O)c4cc(F)c(NC(=O)/C=C/CNC5CC6(COC6)C5)c(F)c4)cn(c13)CCN2C` [Example 84, (E)-4-((2-oxaspiro[3.3]-heptan-6-yl)amino)-N-(2,6-difluoro-4-(6,8,9,11-tetramethyl-8,11,12,13-tetrahydroimidazo[4″,5″: 5′,6′]benzo[1′,2′:5,6]-[1,4]diazocino[7,8,1-hi]-indole-2-carbonyl)phenyl) but-2-enamide]: the concentration for half-maximal inhibition (IC50) in test [1] (setting [7]) worked out at 39.9 nM; in the test with MIA PaCa-2 cells (setting [5]) it was 49.6 nM.

Take `CC(C)(C)NC/C=C/C(=O)Nc1c(F)cc(C(=O)c2cn3c4c(cccc24)-c2c(Cl)cccc2OCCC3)cc1F` (single isomer, unassigned) [Example 2-2, (E)-4-(tert-butylamino)-N-(4-(11-chloro-5,6-dihydro-4H-benzo[8,9][1,5]oxazonino[7,6,5-hi]indole-1-carbonyl)-2,6-difluorophenyl)but-2-enamide]: the values for the half-maximal inhibitory concentration (IC50) (in test [1] (setting [2]); in the test on MIA PaCa-2 cells (Table 3)) were 500 nM and 390 nM, respectively.

Regarding `Cn1cnc2c3c(c(C(F)(F)F)cc21)-c1cccn2c(C(=O)c4cc(F)c(NC(=O)/C=C/CN5CC6(COC6)C5)c(F)c4)cc(c12)CCO3` [Example 198, (E)-N-(2,6-difluoro-4-(9-methyl-7-(trifluorometh-yl)-13,14-dihydro-9H-imidazo[4″,5″:5′,6′]benzo-[1′,2′:2,3]oxocino[4,5,6-hi]indolizine-2-carbonyl)-phenyl)-4-(2-oxa-6-azaspiro[3.3]heptan-6-yl)but-2-enamide], the half-maximal inhibitory concentration (IC50) in test [1] (setting [4]) is 57.1 nM; in the test with MIA PaCa-2 cells (setting [5]), 21.4 nM.

In the case of `Cc1cc2c(nc(C)n2C)c2c1-c1cccc3c(C(=O)c4cc(F)c(NC(=O)/C=C/CNC(C)(C)C(=O)N(C)C)c(F)c4)cn(c13)CCN2C` [Example 103], the IC50 in test [1] (setting [7]) worked out at 99.2 nM; in the test on MIA PaCa-2 cells (setting [5]) it was 303 nM.

As for `Cc1nc2c3c(c(C(F)(F)F)cc2n1C)-c1cccn2c(C(=O)c4cc(F)c(NC(=O)/C=C/CNC5CCOCC5)c(F)c4)cc(c12)CCO3` [Example 34], the IC50 in test [1] (setting [6]) worked out at 12 nM; with MIA PaCa-2 cells (setting [3]), 7 nM.

Consider `Cc1c2cc(C(F)(F)F)c3c(c2nn1C)N(C)CCc1cc(C(=O)c2cc(F)c(NC(=O)/C=C/CNC4(C)COC4)c(F)c2)n2cccc-3c12` [Example 146, (E)-N-(2,6-difluoro-4-(9,10,12-trimethyl-7-(trifluoromethyl)-10,12,13,14-tetrahydroindolizino[8′,1′:4,5,6]azocino[3,2-g]indazole-2-carbonyl)phenyl)-4-((3-methyloxetan-3-yl)amino)but-2-enamide], for which the IC50 in test [1] (setting [4]) was found to be 20.4 nM; in the test with MIA PaCa-2 cells (setting [5]), 19.6 nM.

As to `CO[C@H]1CC[C@H](NC/C=C/C(=O)Nc2c(F)cc(C(=O)c3cn4c5c(cccc35)-c3c(C)cc5c(nc(C)n5C)c3OC[C@@H]4C)cc2F)CC1` [Example 18, (E)-N-(2,6-difluoro-4-((S)-6,8,9,13-tetramethyl-12,13-dihydro-8H-imidazo[4″,5″:3′,4]benzo[1′,2′:7,8][1,4]oxazocino[6,5,4-hi]indole-2-carbonyl)phenyl)-4-(((1,4r)-4-methoxycyclohexyl)amino)but-2-enamide], the figures for the concentration for half-maximal inhibition (IC50) (in test [1] (setting [2]); in the test on MIA PaCa-2 cells (setting [3])) were 19 nM and 21 nM, respectively.

As for `CC1(NC/C=C/C(=O)Nc2c(F)cc(C(=O)c3cc4c5c(cccn35)-c3c(cc(N5CCCC5=O)cc3C(F)(F)F)OCC4)cc2F)COC1` (single isomer, unassigned) [Example 183, (E)-N-(2,6-difluoro-4-(7-(2-oxopyrrolidin-1-yl)-9-(trifluoromethyl)-3,4-dihydrobenzo[2,3]oxocino-[4,5,6-hi]indolizine-1-carbonyl)phenyl)-4-((3-methyloxetan-3-yl)-amino)-but-2-enamide], the IC50 in test [1] (setting [4]) stood at 35.2 nM; with MIA PaCa-2 cells (setting [5]), 112 nM.
